Measurements from article PMC8038991, “R-catcher, a potent molecular tool to unveil the arginylome” (Cellular and Molecular Life Sciences: CMLS, 2021).
“Also recorded” adds a separate entry of the source. Read-outs that look alike come from different tables or passages of the source. Values belong to the compound of their own block, whether it stands above or below them. Peptide text beside a SMILES is read from it.

How the values were obtained:
[1] = biological target: T1, N132D mutant ZZ122-175 (p62) (Homo sapiens, UniProt Q13501, N132D); assay: Isothermal titration calorimetry, N132D ZZ; conditions: ITC, N132D ZZ122-175, 25 °C; read-out: binding affinity (KD)
T1 construct: GST-fused p62 (122–175) wild type and mutants (N132Q and N132D) were expressed in E. coli; GST (N); made in house; host or cells: E. coli BL21 (DE3) RIL
T1 sequence (Q13501 122-175 N132D): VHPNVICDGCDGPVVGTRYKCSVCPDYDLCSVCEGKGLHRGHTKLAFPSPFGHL

[2] = biological target: T2, N132Q mutant ZZ122-175 (p62) (Homo sapiens, UniProt Q13501, N132Q); assay: biochemical; format: binding
T2 construct: GST-fused p62 (122–175) wild type and mutants (N132Q and N132D) were expressed in E. coli; GST (N); made in house; host or cells: E. coli BL21 (DE3) RIL
T2 sequence (Q13501 122-175 N132Q): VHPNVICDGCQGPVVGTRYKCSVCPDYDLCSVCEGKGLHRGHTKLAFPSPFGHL

[3] = biological target: T3, wild type ZZ122-175 (p62) (Homo sapiens, UniProt Q13501); assay: Isothermal titration calorimetry, wild type ZZ (Fig. 3b); conditions: ITC, wild type ZZ122-175, 25 °C; read-out: binding affinity (KD)
T3 construct: GST-fused p62 (122–175) wild type and mutants (N132Q and N132D) were expressed in E. coli; GST (N); made in house; host or cells: E. coli BL21 (DE3) RIL
T3 sequence (Q13501 122-175): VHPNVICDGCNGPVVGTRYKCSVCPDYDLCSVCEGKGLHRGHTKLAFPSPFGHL

[4] = biological target: T4, GST-ZZ122-175 domain (p62) (Homo sapiens, UniProt Q13501); assay: Isothermal titration calorimetry, GST-ZZ122-175 (Fig. 2e); format: binding
T4 construct: GST-fused p62 (122–175) wild type and mutants (N132Q and N132D) were expressed in E. coli; made in house; host or cells: E. coli BL21 (DE3) RIL
T4 sequence (Q13501 122-175): as above
Procedure: (§1) For isothermal titration calorimetry (ITC), GST-fused p62 (122–175) wild type and mutants (N132Q and N132D) were expressed in E. coli BL21 (DE3) RIL competent cells in Luria–Bertani media with 0.1 mM Isopropyl-β-D-thio-galactoside (IPTG) at 18 °C. Cells were collected and sonicated in a B buffer (50 mM Tris–HCl pH 7.5, 200 mM NaCl) containing 3 mM β-mercaptoethanol (β-ME). Cell lysates were centrifuged at 18,000 × g for 1 h to remove cell debris, and this supernatant was loaded onto Glutathione Sepharose™ 4 Fast Flow resin and washed with B buffer. GST-fused proteins were eluted with 20 mM glutathione in an elution buffer (100 mM Tris–HCl pH 7.5, 200 mM NaCl, and 3 mM β-ME). The eluted samples were dialyzed in a dialysis buffer (50 mM Tris–HCl pH 7.5, 50 mM NaCl, and 3 mM β-ME) with or without TEV protease. These samples were loaded onto anion exchange column (HiTrap Q HP, GE Healthcare) and unbounded samples were collected and loaded onto size exclusion chromatography (HiLoad ™ 25/600 Superdex™ 75 pg column, GE healthcare) with the B buffer containing 0.2 mM Tris(2-carboxyethyl)phosphine (TCEP).
(§2) Purified proteins were concentrated to 0.05 mM. 4-mer peptides as injectant were resolved in B buffer to a final concentration of 1 mM. ITC measurement was performed at 25 °C on a Microcal Auto-ITC200.

[5] = test system: HeLa cell extracts stimulated with MG132 plus TG; assay: Large-scale R-catcher pulldown coupled to silver staining and LC-MS/MS; design: species or system human; conditions: for presence in R-catcher working list: LC-MS/MS working list
Procedure: For large-scale R-catcher pulldown assays, HeLa cells were treated with 5 µM MG132 and 100 nM thapsigargin for 24 h. Cells were lysed in hypotonic buffer and 10 mg total was incubated with 750 µl R-catcher-sepharose beads for 3 h at 4 °C after pre-clearing with D129A mutant R-catcher-sepharose beads for 3 h at 4 °C. After three washes with binding buffer, bound proteins were eluted with binding buffer containing 20 mM D-biotin. To remove R-catcher, the eluent was dialyzed using 20 kDa cut-off dialysis membrane in binding buffer containing 3.5 M MgCl2 overnight followed by another overnight dialysis in distilled-deionized water. The dialyzed eluent was lyophilized overnight and dried powder was dissolved in 100 µl LC/MS solubilizer for silver staining and mass spectrometry analysis.
Protein samples solubilized in Invitrosol LC/MS solubilizer (Invitrogen) as following by manufacturer protocol. For removal of incompatible buffer components, protein samples filtrate with 10 K MW ultrafilter for complete digestion. For preparing trypsinization of samples, the retentates were dissolved in 50 mM of ammonium bicarbonate (pH 8.0) untill it reach 1 μg/μL of final concentration. The samples treated with 10 mM DTT at 60 °C for 45 min. Following 20 mM IAA addition, the final mixture incubated in dark for 45 min at 25 °C. 1:50 ratio of Trypsin was added on mixture. The mixture incubated overnight at 37 °C. Final digested samples dried with speed-vacuum. Samples re-dissolved in 20 μL of water containing 0.1% formic acid for LC–MS/MS analysis.
Peptides were analyzed using a LC–MS/MS system consisting of an Easy nLC 1000 (Thermo Fisher scientific) and an Orbitrap Fusion Lumos mass spectrometer (Thermo Fisher Scientific) equipped with a nano-electrospray source (EASY-Spray Sources, Thermo Fisher Scientific). Peptides were trapped 75 μm × 2 cm C18 pre-column (nanoViper, Acclaim PepMap100, Thermo Fisher Scientific) before being separated on an analytical C18 column (75 μm × 50 cm PepMap RSLC, Thermo Fisher Scientific) at a flow rate of 300 nL/min. The mobile phases A and B were composed of 0 and 100% acetonitrile containing 0.1% formic acid, respectively. The LC gradient began with 5% B and was ramped to 8% B for 1 min, 10% B for 16 min, to 40% B for 79 min, to 80% B for 1 min, and remained at 80% B over 8 min. Finally, it was ramped to 5% B for another 5 min. The column was re-equilibrated with 2% B for 10 min before the next run. The voltage applied to produce an electrospray was 1900 V. During the chromatographic separation, the Orbitrap Fusion Lumos was operated in data-dependent mode, automatically switching between MS1 and MS2. The MS data were acquired using the following parameters: Full-scan MS1 spectra (400–1600 m/z) were acquired in the Orbitrap for a maximum ion injection time of 100 ms at a resolution of 120,000 and an automatic gain control (AGC) target value of 4.0e5. MS2 spectra were acquired in the Orbitrap mass analyzer at resolution of 30,000 with high-energy collision dissociation (HCD) of 27% normalized collision energy and AGC target value of 5.0e4 with maximum ion injection time of 54 ms. Previously fragmented ions were excluded for 30 s.
MS/MS spectra were analyzed using the following software analysis protocols with the Uniprot human DB (2019). The reversed sequences of all proteins were appended into the database for calculation of false discovery rate (FDR). ProLucid was used to identify the peptides, a precursor mass error of 5 ppm, and a fragment ion mass error of 200 ppm. Trypsin was selected as the enzyme, with one potential missed cleavage. Carbamidomethylation at cystein was chosen as static modifications. Oxidation at methionine was chosen as variable modification. The output data files were filtered and sorted to compose the protein list using the DTASelect (The Scripps Research Institute, USA) with two and more peptides assignments for a protein identification and a false positive rate less than 0.01. […]

R-catcher [6] = assay: Small-scale R-catcher pulldown of known arginylated proteins; format: binding, human; conditions: for pulldown by R-catcher, overexpressed substrates: HEK293 cells, R-catcher on tactin beads, immunoblot
Procedure: (§3) For small-scale R-catcher pull-down assays, 300 µg of purified R-catcher was conjugated with 120 µl of Strep-Tactin sepharose resin by incubating overnight at 4 °C. To test R-catcher’s ability to capture known arginylated proteins, such as R-BiP, R-PDI, R-nsP4 and R-RGS4, plasmids encoding Ub-X-(BiP, PDI and nsP4) or MX-RGS4 (X = Arg or Val) were transiently transfected into HEK293 cells. After 24 h, cells were treated with 10 µM MG132 and 100 nM thapsigargin for another 24 h. Cells were harvested and lysed in hypotonic buffer and 300 µg total protein was incubate with 25 µl R-catcher-sepharose resin in binding buffer (20 mM HEPES pH 7.9, 0.05% Tween 20, 10% glycerol, 0.2 M KCl, protease inhibitor and phosphatase inhibitor) for 3 h with gentle rotation at 4 °C. After three washes with binding buffer, bound proteins were dissociated with 2 × SDS sample buffer and boiling at 100 °C and subjected to immunoblotting using anti-myc or flag antibodies.

R-catcher [7] = assay: R-catcher pulldown of putative arginylated ER proteins, HeLa; format: binding, human; conditions: 5 µM MG132 plus 100 nM TG, RA competition, Fig. 6a
Procedure: as §3
Plasmids encoding the proteins were transiently transfected to HeLa cells for 24 h and stimulated with 5 µM MG132 plus 100 nM TG for another 24 h. Cell lysates were incubated with R-catcher immobilized on tactin beads for 3 h. After wash, bound proteins were eluted with 2 × SDS sample buffer followed by boiling at 100 °C for 10 min and visualized by western blot analysis. b R-catcher pulldown assays to validate ATE1-dependent arginylation of […]1, PRDX4, FBLN1 and CLUS. Plasmids encoding […]1, PRDX4, FBLN1 and CLUS were transiently transfected into + / + and ATE1^−/− MEFs for 24 h and stimulated with 5 µM MG132 plus 100 nM TG for another 9 h. Cell lysates were subjected to R-catcher pulldown, and bound proteins were detected by western blot analysis. c R-catcher pull-down assays to evaluate if the arginylation of FBNL1, SERPINH1, CLUS and PRDX4 is induced in response to MG132 plus thapsigargin. d X-peptide pulldown assays to confirm no interaction of R-catcher with Nt-Ala19 of SERPINH1 peptides and Nt-Trp38 of PRDX4 peptides. X-peptides where X is A19 (SignalP predicted P1’ site), E20 (next possible P1’ site predicted by PrediSi) or R19 (Arginylated form of Glu) for SERPINH1 and W38 (SignalP predicted P1’ site), E39 (next possible P1’ site predicted by PrediSi) or R38 (Arginylated form) for PRDX4. Biotinylated X-peptides immobilized on streptavidin agarose beads were incubated with affinity-purified GST-ZZ ([…]). Bound GST-ZZ (N132D) was detected by immunoblotting. e Identification of arginylated sites employing mutational analysis. Predicted P1’ sites of SERPINH1, PRDX4, CLUS and FBLN1 were substituted to Gly, and the inhibitory effect of the mutation on binding with R-catcher was examined by performing R-catcher pulldown assays

[8] = test system: ZZ wild type, ZZ (N132D) and ZZ (N132Q); assay: Isothermal titration calorimetry, any ZZ domain (wild type, N132D, N132Q); format: binding, human; conditions: ITC, 25 °C
Procedure: as §1, §2

Compound: CC[C@H](C)[C@H](NC(=O)[C@@H](N)CCCNC(=N)N)C(=O)N[C@@H](Cc1ccccc1)C(=O)N[C@@H](CO)C(=O)O [RIFS] (H-RIFS-OH)
Kd [1]: 2.85 µM
Kd [2]: 21.4 ± 9.51 µM
Kd [3]: 6.9 µM
Kd [4]: 4.39 ± 0.449 µM

Compound: CC[C@H](C)[C@H](NC(=O)[C@@H](N)Cc1ccc(O)cc1)C(=O)N[C@@H](Cc1ccccc1)C(=O)N[C@@H](CO)C(=O)O [YIFS] (H-YIFS-OH)
Kd [1]: 107 µM
Kd [3]: 20.7 µM
Kd ([4]; ITC, (GST-)ZZ122-175 wild type, 25 °C, read-out: KD): 16.1 µM

Compound: BiP: ER chaperone BiP, arginylated (2nd Glu)
presence in R-catcher working list [5]: among the known arginylated proteins
pulldown by R-catcher, overexpressed substrates (R-catcher [6]; Fig. 4d): could pulldown
pulldown by R-catcher, endogenous (R-catcher [6]; HeLa, MG132 plus TG, Fig. 4e): could pulldown

Compound: ENPL: endoplasmin
binding with R-catcher, Nt-Arg dependence (R-catcher [7]): no significant binding affinity for R-catcher

Compound: FIFS [peptide]
affinity for ZZ domains [8]: no affinity

Compound: FKBP10: FK506-binding protein 10
binding with R-catcher, Nt-Arg dependence (R-catcher [7]): Nt-Arg-dependent binding with R-catcher; also recorded: unusually high binding affinity for R-catcher

Compound: IIFS [peptide]
affinity for ZZ domains [8]: no affinity

Compound: LIFS [peptide]
affinity for ZZ domains [8]: no affinity

binding affinity for R-catcher (R-catcher [6]; Fig. 4d, discussion): low binding affinity
Compound: PDI: protein disulfide isomerase, arginylated (2nd Asp)
presence in R-catcher working list [5]: not detected in our list
pulldown by R-catcher, overexpressed substrates (R-catcher [6]; Fig. 4d): could pulldown

R-PDI binding to R-catcher, preliminary (R-catcher [6]; preliminary result, N-termini enhancing methods): detected R-PDI binding to R-catcher
Compound: R-PDI: arginylated PDI

Compound: R-catcher: ZZ122-175^N132D tagged with twin strepII-His6 at the N-terminus, approximately 9 kDa protein
number of known and putative arginylated proteins captured (final working list) ([5]; HeLa, MG132 + TG): 59 proteins
number of proteins in WT list ([5]; no dipeptide, LC-MS/MS, Fig. 5c): 83 proteins
number of proteins in AR list ([5]; with AR dipeptide competition): 163 proteins
number of proteins in RA list ([5]; with RA dipeptide competition): 42 proteins

Compound: TIFS [4-mer peptide]
affinity for ZZ domains [8]: no affinity
